Article PMC12136037, “Type II kinase inhibitors that target Parkinson’s disease–associated LRRK2” (Science Advances, 2025)

How the values were obtained:
Assay in all cases: 33PanQinase kinome-wide selectivity profile (Reaction Biology)
Format in all cases: biochemical
[1] = target: T1, 350 wild-type kinases (Homo sapiens, UniProt O00311); conditions: kinase CDC7/DBF4, ATP 0,1 µM, singlicate
T1 construct: purchased Reaction Biology (assay service)
Protocol: (§1) Compound RN341 was tested at two concentrations of 1 and 10 μM against a panel of 350 wild-type kinases in the ^33PanQinase assay. The assay was performed by Reaction Biology (www.reactionbiology.com/services/kinase-assays/kinase-panel-screening/).

[2] = target: T2, 350 wild-type kinases (Homo sapiens, UniProt O60566); conditions: kinase BUB1B, ATP 0,3 µM, singlicate
T2 construct: purchased Reaction Biology (assay service)
T2 sequence (O60566 whole entry): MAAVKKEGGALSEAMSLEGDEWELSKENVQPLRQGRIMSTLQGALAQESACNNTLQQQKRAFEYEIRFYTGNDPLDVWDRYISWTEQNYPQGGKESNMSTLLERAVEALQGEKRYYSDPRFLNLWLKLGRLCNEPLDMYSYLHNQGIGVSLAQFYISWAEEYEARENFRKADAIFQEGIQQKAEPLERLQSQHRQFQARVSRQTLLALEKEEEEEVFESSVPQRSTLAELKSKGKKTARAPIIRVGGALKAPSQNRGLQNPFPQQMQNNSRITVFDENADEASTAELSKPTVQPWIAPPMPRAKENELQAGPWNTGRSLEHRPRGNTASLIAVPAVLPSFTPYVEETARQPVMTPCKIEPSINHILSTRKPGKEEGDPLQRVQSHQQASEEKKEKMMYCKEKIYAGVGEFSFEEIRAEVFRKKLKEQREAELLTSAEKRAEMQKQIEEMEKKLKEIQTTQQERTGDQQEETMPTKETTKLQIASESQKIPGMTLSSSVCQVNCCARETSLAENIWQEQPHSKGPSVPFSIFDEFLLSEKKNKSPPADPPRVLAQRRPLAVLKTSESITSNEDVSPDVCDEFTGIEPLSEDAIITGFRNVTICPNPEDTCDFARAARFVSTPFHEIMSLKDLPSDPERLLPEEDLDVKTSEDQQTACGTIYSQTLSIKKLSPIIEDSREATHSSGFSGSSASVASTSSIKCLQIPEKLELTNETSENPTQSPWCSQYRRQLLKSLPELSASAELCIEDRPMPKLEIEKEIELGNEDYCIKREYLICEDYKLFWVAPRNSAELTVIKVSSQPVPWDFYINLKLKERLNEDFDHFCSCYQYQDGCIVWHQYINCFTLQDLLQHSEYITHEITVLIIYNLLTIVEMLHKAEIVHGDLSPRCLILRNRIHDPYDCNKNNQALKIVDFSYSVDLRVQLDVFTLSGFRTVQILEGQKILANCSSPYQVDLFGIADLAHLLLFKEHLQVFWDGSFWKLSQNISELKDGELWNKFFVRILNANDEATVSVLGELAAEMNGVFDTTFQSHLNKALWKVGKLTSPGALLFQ
Protocol: as §1

[3] = target: T3, 350 wild-type kinases (Homo sapiens, UniProt P11802); conditions: singlicate; for Residual activity (% of control), CDK4/CycD1: kinase CDK4/CycD1; for Residual activity (% of control), CDK4/CycD1 / Residual activity (% of control), CDK4/CycD2: ATP 3 µM; for Residual activity (% of control), CDK4/CycD2: kinase CDK4/CycD2; for Residual activity (% of control), CDK4/CycD3: kinase CDK4/CycD3, ATP 10 µM
T3 construct: purchased Reaction Biology (assay service)
T3 sequence (P11802 whole entry): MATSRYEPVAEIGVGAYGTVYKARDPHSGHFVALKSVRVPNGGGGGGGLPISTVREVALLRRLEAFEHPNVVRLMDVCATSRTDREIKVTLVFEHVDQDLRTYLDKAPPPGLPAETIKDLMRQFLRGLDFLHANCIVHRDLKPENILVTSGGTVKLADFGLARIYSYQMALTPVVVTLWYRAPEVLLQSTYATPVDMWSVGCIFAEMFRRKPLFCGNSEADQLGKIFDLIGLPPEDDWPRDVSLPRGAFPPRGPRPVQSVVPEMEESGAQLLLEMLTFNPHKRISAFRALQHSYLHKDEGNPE
Protocol: as §1

[4] = target: T4, 350 wild-type kinases (Homo sapiens, UniProt P19784); conditions: kinase CK2alpha2, ATP 0,1 µM, singlicate
T4 construct: purchased Reaction Biology (assay service)
T4 sequence (P19784 whole entry): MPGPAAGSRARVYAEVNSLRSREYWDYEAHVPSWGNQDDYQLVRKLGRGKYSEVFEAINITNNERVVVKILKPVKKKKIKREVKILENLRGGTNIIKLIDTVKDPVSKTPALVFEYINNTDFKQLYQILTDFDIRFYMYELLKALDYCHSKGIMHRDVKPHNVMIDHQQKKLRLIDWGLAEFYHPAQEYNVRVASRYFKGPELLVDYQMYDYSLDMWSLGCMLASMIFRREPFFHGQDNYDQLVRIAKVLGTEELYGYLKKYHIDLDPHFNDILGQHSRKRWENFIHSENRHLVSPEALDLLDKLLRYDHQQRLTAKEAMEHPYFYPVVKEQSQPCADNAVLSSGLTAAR
Protocol: as §1

[5] = target: T5, 350 wild-type kinases (Homo sapiens, UniProt P24941); conditions: singlicate; for Residual activity (% of control), CDK2/CycA2: kinase CDK2/CycA2, ATP 0,3 µM; for Residual activity (% of control), CDK2/CycD1: kinase CDK2/CycD1, ATP 3 µM; for Residual activity (% of control), CDK2/CycE1: kinase CDK2/CycE1, ATP 1 µM
T5 construct: purchased Reaction Biology (assay service)
Protocol: as §1

[6] = target: T6, 350 wild-type kinases (Homo sapiens, UniProt P36896); conditions: kinase ACVR1B, ATP 3 µM, singlicate
T6 construct: purchased Reaction Biology (assay service)
T6 sequence (P36896 24-505): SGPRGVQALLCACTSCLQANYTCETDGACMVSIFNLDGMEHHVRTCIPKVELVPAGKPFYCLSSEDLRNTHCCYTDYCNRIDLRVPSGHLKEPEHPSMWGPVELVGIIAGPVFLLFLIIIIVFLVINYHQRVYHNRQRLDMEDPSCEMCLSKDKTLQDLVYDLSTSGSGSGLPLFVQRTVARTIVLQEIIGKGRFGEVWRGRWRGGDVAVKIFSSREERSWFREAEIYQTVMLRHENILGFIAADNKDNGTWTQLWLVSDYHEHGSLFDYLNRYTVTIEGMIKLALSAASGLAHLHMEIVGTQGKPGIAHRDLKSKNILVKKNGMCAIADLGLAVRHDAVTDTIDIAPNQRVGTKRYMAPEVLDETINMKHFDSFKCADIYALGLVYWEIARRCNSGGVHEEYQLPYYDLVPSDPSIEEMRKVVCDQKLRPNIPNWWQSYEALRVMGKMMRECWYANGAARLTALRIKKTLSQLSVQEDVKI
Protocol: as §1

[7] = target: T7, 350 wild-type kinases (Homo sapiens, UniProt P49761); conditions: kinase CLK3, ATP 0,3 µM, singlicate
T7 construct: purchased Reaction Biology (assay service)
T7 sequence (P49761 whole entry): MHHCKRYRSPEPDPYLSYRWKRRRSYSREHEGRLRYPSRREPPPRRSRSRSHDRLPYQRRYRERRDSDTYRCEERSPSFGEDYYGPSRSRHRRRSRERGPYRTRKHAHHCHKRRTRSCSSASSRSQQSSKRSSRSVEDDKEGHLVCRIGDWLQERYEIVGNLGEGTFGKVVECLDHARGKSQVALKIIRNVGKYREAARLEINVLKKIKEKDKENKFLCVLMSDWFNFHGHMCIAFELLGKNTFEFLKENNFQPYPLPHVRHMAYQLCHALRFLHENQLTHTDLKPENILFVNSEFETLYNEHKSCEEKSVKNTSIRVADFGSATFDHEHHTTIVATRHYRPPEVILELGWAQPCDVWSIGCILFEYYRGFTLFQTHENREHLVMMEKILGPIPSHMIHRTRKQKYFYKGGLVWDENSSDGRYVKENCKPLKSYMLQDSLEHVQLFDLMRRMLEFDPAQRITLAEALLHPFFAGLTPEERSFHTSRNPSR
Protocol: as §1

[8] = target: T8, 350 wild-type kinases (Homo sapiens, UniProt Q5VT25); conditions: kinase CDC42BPA, ATP 0,1 µM, singlicate
T8 construct: purchased Reaction Biology (assay service)
T8 sequence (Q5VT25 whole entry): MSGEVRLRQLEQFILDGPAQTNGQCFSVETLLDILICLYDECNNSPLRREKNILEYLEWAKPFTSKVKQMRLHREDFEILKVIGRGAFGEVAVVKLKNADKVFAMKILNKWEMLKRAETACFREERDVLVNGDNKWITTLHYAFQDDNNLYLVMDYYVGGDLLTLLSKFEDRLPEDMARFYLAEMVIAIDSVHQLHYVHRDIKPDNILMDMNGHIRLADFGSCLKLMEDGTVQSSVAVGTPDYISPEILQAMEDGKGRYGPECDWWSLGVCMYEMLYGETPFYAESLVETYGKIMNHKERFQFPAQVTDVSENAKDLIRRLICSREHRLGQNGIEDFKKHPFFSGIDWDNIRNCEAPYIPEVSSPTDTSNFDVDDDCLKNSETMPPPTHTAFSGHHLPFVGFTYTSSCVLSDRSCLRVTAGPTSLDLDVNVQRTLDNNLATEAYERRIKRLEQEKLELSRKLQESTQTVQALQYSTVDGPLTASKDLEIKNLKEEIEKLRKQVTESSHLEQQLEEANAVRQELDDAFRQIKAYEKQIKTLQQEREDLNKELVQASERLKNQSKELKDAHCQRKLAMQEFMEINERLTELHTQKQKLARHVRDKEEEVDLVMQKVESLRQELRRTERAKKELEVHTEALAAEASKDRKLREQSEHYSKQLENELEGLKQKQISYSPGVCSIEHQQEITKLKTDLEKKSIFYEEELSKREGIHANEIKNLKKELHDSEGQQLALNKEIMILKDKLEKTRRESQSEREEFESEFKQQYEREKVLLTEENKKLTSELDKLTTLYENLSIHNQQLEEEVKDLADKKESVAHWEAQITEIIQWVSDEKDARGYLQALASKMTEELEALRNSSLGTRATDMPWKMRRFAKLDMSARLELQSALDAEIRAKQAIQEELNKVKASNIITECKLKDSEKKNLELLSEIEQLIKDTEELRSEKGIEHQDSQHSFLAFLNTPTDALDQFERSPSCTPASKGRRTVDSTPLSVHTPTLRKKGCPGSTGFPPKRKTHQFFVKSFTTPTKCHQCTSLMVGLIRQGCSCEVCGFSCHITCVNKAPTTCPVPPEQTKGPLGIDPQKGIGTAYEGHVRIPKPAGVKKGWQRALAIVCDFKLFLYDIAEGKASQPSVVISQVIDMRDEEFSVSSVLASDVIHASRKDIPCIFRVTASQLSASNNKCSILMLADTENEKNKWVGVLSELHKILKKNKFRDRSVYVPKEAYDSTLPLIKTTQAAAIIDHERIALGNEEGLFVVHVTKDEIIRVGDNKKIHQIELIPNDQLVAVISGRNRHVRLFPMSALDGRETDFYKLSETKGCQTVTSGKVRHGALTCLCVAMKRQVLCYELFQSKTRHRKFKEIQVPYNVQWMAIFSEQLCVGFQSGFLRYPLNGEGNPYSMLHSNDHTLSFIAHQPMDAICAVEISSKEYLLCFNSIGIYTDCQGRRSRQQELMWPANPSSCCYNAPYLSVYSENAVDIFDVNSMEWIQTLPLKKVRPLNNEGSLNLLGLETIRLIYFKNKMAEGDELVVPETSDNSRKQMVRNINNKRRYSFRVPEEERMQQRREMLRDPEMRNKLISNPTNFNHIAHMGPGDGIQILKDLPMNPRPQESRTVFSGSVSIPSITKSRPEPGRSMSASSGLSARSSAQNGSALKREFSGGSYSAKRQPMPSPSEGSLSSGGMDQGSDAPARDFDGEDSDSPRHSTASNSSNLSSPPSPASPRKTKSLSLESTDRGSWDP
Protocol: as §1

[9] = target: T9, 350 wild-type kinases (Homo sapiens, UniProt Q96RR4); conditions: kinase CAMKK2, ATP 3 µM, singlicate
T9 construct: purchased Reaction Biology (assay service)
Protocol: as §1

[10] = system: 350 wild-type kinases; conditions: 10 μM, 350 kinases
Protocol: as §1

T1 sequence (O00311 whole entry): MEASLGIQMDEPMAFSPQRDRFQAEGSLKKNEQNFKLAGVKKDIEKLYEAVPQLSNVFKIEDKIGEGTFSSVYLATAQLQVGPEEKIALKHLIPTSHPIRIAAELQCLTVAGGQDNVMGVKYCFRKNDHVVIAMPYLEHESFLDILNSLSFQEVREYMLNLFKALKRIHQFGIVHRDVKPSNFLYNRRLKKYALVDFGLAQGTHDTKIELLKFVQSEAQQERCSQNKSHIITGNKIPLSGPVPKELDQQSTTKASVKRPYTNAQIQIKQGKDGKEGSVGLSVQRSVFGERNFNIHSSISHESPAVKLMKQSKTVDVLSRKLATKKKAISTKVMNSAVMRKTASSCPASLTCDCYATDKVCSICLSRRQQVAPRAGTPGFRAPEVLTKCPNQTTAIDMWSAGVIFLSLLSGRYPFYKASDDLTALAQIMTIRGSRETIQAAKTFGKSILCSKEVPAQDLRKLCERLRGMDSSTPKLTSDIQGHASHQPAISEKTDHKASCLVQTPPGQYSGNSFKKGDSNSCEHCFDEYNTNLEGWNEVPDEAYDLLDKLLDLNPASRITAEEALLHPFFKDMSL

## CCSc1nc(NC)c2c(-c3cccc(NC(=O)Nc4cc(C(C)(C)C)nn4-c4ccc(C)cc4)c3)c[nH]c2n1 [Compound 32]
[1]; Assay Conc. 1.0E-05 M
  Residual activity (% of control), CDC7/DBF4: 50 % of control
[1]; Assay Conc. 1.0E-06 M
  Residual activity (% of control), CDC7/DBF4: 89 % of control
[2]; Assay Conc. 1.0E-05 M
  Residual activity (% of control), BUB1B: 85 % of control
[2]; Assay Conc. 1.0E-06 M
  Residual activity (% of control), BUB1B: 119 % of control
[3]; Assay Conc. 1.0E-05 M
  Residual activity (% of control), CDK4/CycD1: 57 % of control
  Residual activity (% of control), CDK4/CycD2: 49 % of control
  Residual activity (% of control), CDK4/CycD3: 87 % of control
[3]; Assay Conc. 1.0E-06 M
  Residual activity (% of control), CDK4/CycD1: 87 % of control
  Residual activity (% of control), CDK4/CycD2: 111 % of control
  Residual activity (% of control), CDK4/CycD3: 102 % of control
[4]; Assay Conc. 1.0E-05 M
  Residual activity (% of control), CK2alpha2: 92 % of control
[4]; Assay Conc. 1.0E-06 M
  Residual activity (% of control), CK2alpha2: 101 % of control
[5]; Assay Conc. 1.0E-05 M
  Residual activity (% of control), CDK2/CycA2: 46 % of control
  Residual activity (% of control), CDK2/CycD1: 78 % of control
  Residual activity (% of control), CDK2/CycE1: 58 % of control
[5]; Assay Conc. 1.0E-06 M
  Residual activity (% of control), CDK2/CycA2: 105 % of control
  Residual activity (% of control), CDK2/CycD1: 110 % of control
  Residual activity (% of control), CDK2/CycE1: 103 % of control
[6]; Assay Conc. 1.0E-05 M
  Residual activity (% of control), ACVR1B: 76 % of control
[6]; Assay Conc. 1.0E-06 M
  Residual activity (% of control), ACVR1B: 93 % of control
[7]; Assay Conc. 1.0E-05 M
  Residual activity (% of control), CLK3: 66 % of control
[7]; Assay Conc. 1.0E-06 M
  Residual activity (% of control), CLK3: 90 % of control
[8]; Assay Conc. 1.0E-05 M
  Residual activity (% of control), CDC42BPA: 111 % of control
[8]; Assay Conc. 1.0E-06 M
  Residual activity (% of control), CDC42BPA: 122 % of control
[9]; Assay Conc. 1.0E-05 M
  Residual activity (% of control), CAMKK2: 85 % of control
[9]; Assay Conc. 1.0E-06 M
  Residual activity (% of control), CAMKK2: 119 % of control
[10]
  number of kinases inhibited with less than 30% residual activity: 10
